Assay results: US9296723B2, “NAMPT inhibitors” (AbbVie Inc., priority 2012, dated 2016)

Legend:
[1] = molecular target: T1, NAMPT (Homo sapiens, UniProt P43490); assay: Time-Resolved Fluorescence Resonance Energy Transfer (TR-FRET) Binding Assay of NAMPT; settings: 6.8 nM NAMPT, 200 nM probe, equilibrated 3 hours, no substrates
In short: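 IC50s come from four-parameter logistic fits of control-normalized Em520/Em495 TR-FRET ratios (Ex 337 nm) against compound concentration. Before reading, enzyme, probe, antibody and compound equilibrated for 3 h at room temperature.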

[2] = system: PC3 cells; assay: NAMPT Cell Proliferation Assay (Cell Titer Glo); format: cell-based; settings: Homo sapiens, PC-3, 120 h, incubated 5 days, cell viability
In short: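 Viability measured by Cell Titer Glo luminescence after 5-day exposure of attached PC3 cells to compound, dosed as 10-fold serial dilutions ([…]) in RPMI/10% FBS at 37 °C and 5% CO2. Percent inhibition fitted to sigmoidal dose-response curves for IC50.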

[3] = molecular target: T1, NAMPT; assay: TR-FRET Binding Assay of NAMPT with PRPP; settings: 2 nM NAMPT, 2 nM probe, 200 µM PRPP and 2.5 mM ATP, equilibrated 16 hours
In short: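 Substrates present: PRPP at 200 µM and ATP at 2.5 mM, final, alongside 2 nM enzyme, 2 nM tracer and 1 nM terbium anti-His donor in 2% DMSO. A 16-hour equilibration preceded the time-resolved FRET read, allowing compounds to be enzymatically modified.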

T1 sequence (P43490 whole entry): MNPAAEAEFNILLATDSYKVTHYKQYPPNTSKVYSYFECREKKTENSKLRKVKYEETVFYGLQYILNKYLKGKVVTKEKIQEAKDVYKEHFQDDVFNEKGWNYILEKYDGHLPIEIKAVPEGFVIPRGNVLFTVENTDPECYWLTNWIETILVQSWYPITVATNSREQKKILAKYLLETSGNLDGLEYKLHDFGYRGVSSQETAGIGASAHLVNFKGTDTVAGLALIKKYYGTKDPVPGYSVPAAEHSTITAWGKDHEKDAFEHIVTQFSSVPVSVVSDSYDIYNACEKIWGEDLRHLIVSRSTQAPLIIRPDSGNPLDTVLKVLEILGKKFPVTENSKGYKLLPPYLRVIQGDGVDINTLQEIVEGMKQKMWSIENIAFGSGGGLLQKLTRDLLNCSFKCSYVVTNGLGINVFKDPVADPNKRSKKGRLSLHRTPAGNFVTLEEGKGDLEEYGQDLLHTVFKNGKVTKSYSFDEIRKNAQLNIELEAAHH

| SMILES | IC50 [1] [nM] | IC50 [2] [nM] | IC50 [3] [nM] |
| --- | --- | --- | --- |
| CCC(C)(C)C(=O)N1CCC(c2ccc(NC(=O)N3CC(c4cccnc4)C3)cc2)CC1 [Example 169, N-{4-[1-(2,2-dimethylbutanoyl)piperidin-4-yl]phenyl}-3-(pyridin-3-yl)azetidine-1-carboxamide] | 5.36 | 7.98 | 0.304 |
| CC(C)(C)CC(=O)N1CC(Oc2ccc(NC(=O)N3CC(c4cccnc4)C3)cc2)C1 [Example 133, N-(4-{[1-(3,3-dimethylbutanoyl)azetidin-3-yl]oxy}phenyl)-3-(pyridin-3-yl)azetidine-1-carboxamide] | 13.2 | 4.43 | 0.358 |
| O=C(CC1CCCCC1)N1CCC(c2ccc(NC(=O)N3CC(c4cccnc4)C3)cc2)C1 (stereo not drawn) [Example 278, N-{4-[1-(cyclohexylacetyl)pyrrolidin-3-yl]phenyl}-3-(pyridin-3-yl)azetidine-1-carboxamide] | 19.7 | 30.6 | 0.213 |
| CC1(C(=O)N2CC(Oc3ccc(NC(=O)N4CC(c5cccnc5)C4)cc3)C2)CCCCC1 [Example 152, N-[4-({1-[(1-methylcyclohexyl)carbonyl]azetidin-3-yl}oxy)phenyl]-3-(pyridin-3-yl)azetidine-1-carboxamide] | 5.18 | 6.04 | 0.42 |
| O=C(Nc1ccc(O[C@@H]2CCN(C(=O)[C@@H]3CCCO3)C2)cc1)N1CC(c2cccnc2)C1 [Example 78, 3-(pyridin-3-yl)-N-[4-({(3R)-1-[(2S)-tetrahydrofuran-2-ylcarbonyl]pyrrolidin-3-yl}oxy)phenyl]azetidine-1-carboxamide] | 137 | 56 | 0.226 |
| COC(=O)c1ccc(NC(=O)N2CC(c3cccnc3)C2)cc1 [Example 13, methyl 4-({[3-(pyridin-3-yl)azetidin-1-yl]carbonyl}amino)benzoate] | 201 | 514 | 0.374 |
| CCOCCC(=O)N1CC[C@@H](Oc2ccc(NC(=O)N3CC(c4cccnc4)C3)cc2)C1 [Example 314, N-(4-{[(3R)-1-(3-ethoxypropanoyl)pyrrolidin-3-yl]oxy}phenyl)-3-(pyridin-3-yl)azetidine-1-carboxamide] | 110 | 83.9 | 0.178 |
| O=C(CC1CC1)N1CC(c2ccc(NC(=O)N3CC(c4cccnc4)C3)cc2)C1 [Example 105, N-{4-[1-(cyclopropylacetyl)azetidin-3-yl]phenyl}-3-(pyridin-3-yl)azetidine-1-carboxamide] | 68.3 | 60.9 | 0.208 |
| O=C(Nc1ccc(C2=CCN(C(=O)[C@@H]3CCCO3)CC2)cc1)N1CC(c2cccnc2)C1 [Example 11, 3-(pyridine-3-yl)-N-(4-{1-[(2S)-tetrahydrofuran-2-ylcarbonyl]-1,2,3,6-tetrahydropyridin-4-yl}phenyl)azetidine-1-carboxamide] | 15.8 | 9.33 | 0.32 |
| O=C(CC1CCCCC1)N1CCC(c2ccc(NC(=O)N3CC(c4cccnc4)C3)cc2)CC1 [Example 178, N-{4-[1-(cyclohexylacetyl)piperidin-4-yl]phenyl}-3-(pyridin-3-yl)azetidine-1-carboxamide] | 13.9 | 75 | 0.42 |
| O=C(Nc1ccc(C2=CCN(C(=O)[C@H]3CCCO3)CC2)cc1)N1CC(c2cccnc2)C1 [Example 10, 3-(pyridine-3-yl)-N-(4-{1-[(2R)-tetrahydrofuran-2-ylcarbonyl]-1,2,3,6-tetrahydropyridin-4-yl}phenyl)azetidine-1-carboxamide] | 41.5 | 38.9 | 0.25 |
| COCC(=O)N1CC[C@@H](Oc2ccc(NC(=O)N3CC(c4cccnc4)C3)cc2)C1 [Example 331, N-(4-{[(3R)-1-(methoxyacetyl)pyrrolidin-3-yl]oxy}phenyl)-3-(pyridin-3-yl)azetidine-1-carboxamide] | 81 | 42.4 | 0.351 |
| O=C(CCN1CCCC1)N1CCC(Oc2ccc(NC(=O)N3CC(c4cccnc4)C3)cc2)CC1 [Example 39, 3-(pyridin-3-yl)-N-[4-({1-[3-(pyrrolidin-1-yl)propanoyl]piperidin-4-yl}oxy)phenyl]azetidine-1-carboxamide] | 90.5 | 115 | 0.338 |
| CC(C)(C)C(=O)N1CCC(Oc2ccc(NC(=O)N3CC(c4cccnc4)C3)cc2)CC1 [Example 44, N-(4-{[1-(2,2-dimethylpropanoyl)piperidin-4-yl]oxy}phenyl)-3-(pyridin-3-yl)azetidine-1-carboxamide] | 44.6 | 38.5 | 0.315 |
| O=C(Nc1ccc(OC2CN(C(=O)c3cccs3)C2)cc1)N1CC(c2cccnc2)C1 [Example 141, 3-(pyridin-3-yl)-N-(4-{[1-(thiophen-2-ylcarbonyl)azetidin-3-yl]oxy}phenyl)azetidine-1-carboxamide] | 17.6 | 8.33 | 0.249 |
| O=C(Nc1ccc(C2CCN(CC3CCCC3)CC2)cc1)N1CC(c2cccnc2)C1 [Example 231, N-{4-[1-(cyclopentylmethyl)piperidin-4-yl]phenyl}-3-(pyridin-3-yl)azetidine-1-carboxamide] | 421 | 361 | 0.225 |
| O=C(CC1CCOCC1)N1CC(c2ccc(NC(=O)N3CC(c4cccnc4)C3)cc2)C1 [Example 100, 3-(pyridin-3-yl)-N-{4-[1-(tetrahydro-2H-pyran-4-ylacetyl)azetidin-3-yl]phenyl}azetidine-1-carboxamide] | 108 | 27.3 | 0.309 |

The remaining molecules from weak to strong by IC50 [1], led by results:

| IC50 [1] [nM] | IC50 [2] [nM] | IC50 [3] [nM] | SMILES |
| --- | --- | --- | --- |
| 871 | 471 | 0.304 | CC(C)(C)CCN1CC(c2ccc(NC(=O)N3CC(c4cccnc4)C3)cc2)C1 [Example 247, N-{4-[1-(3,3-dimethylbutyl)azetidin-3-yl]phenyl}-3-(pyridin-3-yl)azetidine-1-carboxamide] |
| 271 | 734 | 0.173 | CCC(C)CN1CC(c2ccc(NC(=O)N3CC(c4cccnc4)C3)cc2)C1 (stereo not drawn) [Example 255, N-{4-[1-(2-methylbutyl)azetidin-3-yl]phenyl}-3-(pyridin-3-yl)azetidine-1-carboxamide] |
| 122 | 81.5 | 0.411 | O=C(CC(F)(F)F)N1CC(c2ccc(NC(=O)N3CC(c4cccnc4)C3)cc2)C1 [Example 108, 3-(pyridin-3-yl)-N-{4-[1-(3,3,3-trifluoropropanoyl)azetidin-3-yl]phenyl}azetidine-1-carboxamide] |
| 97.8 | 195 | 0.551 | COCCOCC(=O)N1CC=C(c2ccc(NC(=O)N3CC(c4cccnc4)C3)cc2)CC1 [Example 23, N-(4-{1-[(2-methoxyethoxy)acetyl]-1,2,3,6-tetrahydropyridin-4-yl}phenyl)-3-(pyridin-3-yl)azetidine-1-carboxamide] |
| 68.4 | 123 | 0.5 | COCC(=O)N1CC=C(c2ccc(NC(=O)N3CC(c4cccnc4)C3)cc2)CC1 [Example 20, N-{4-[1-(methoxyacetyl)-1,2,3,6-tetrahydropyridin-4-yl]phenyl}-3-(pyridin-3-yl)azetidine-1-carboxamide] |
| 61.7 | 22.2 | 0.474 | O=C(Nc1ccc(O[C@@H]2CCN(C(=O)C3CCCCC3)C2)cc1)N1CC(c2cccnc2)C1 [Example 332, N-(4-{[(3R)-1-(cyclohexylcarbonyl)pyrrolidin-3-yl]oxy}phenyl)-3-(pyridin-3-yl)azetidine-1-carboxamide] |
| 52.4 | 68.3 | 0.359 | CCCCC(=O)N1CCC(c2ccc(NC(=O)N3CC(c4cccnc4)C3)cc2)C1 (stereo not drawn) [Example 258, N-[4-(1-pentanoylpyrrolidin-3-yl)phenyl]-3-(pyridin-3-yl)azetidine-1-carboxamide] |
| 41.4 | 51 | 0.194 | Cc1ccc(C(=O)N2CC[C@@H](Oc3ccc(NC(=O)N4CC(c5cccnc5)C4)cc3)C2)s1 [Example 323, N-[4-({(3R)-1-[(5-methylthiophen-2-yl)carbonyl]pyrrolidin-3-yl}oxy)phenyl]-3-(pyridin-3-yl)azetidine-1-carboxamide] |
| 40.9 | 35.1 | 0.188 | O=C(Nc1ccc(C2CCN(C(=O)c3ccoc3)C2)cc1)N1CC(c2cccnc2)C1 (stereo not drawn) [Example 264, N-{4-[1-(furan-3-ylcarbonyl)pyrrolidin-3-yl]phenyl}-3-(pyridin-3-yl)azetidine-1-carboxamide] |
| 32.5 | 33.7 | 0.381 | CSCC(=O)N1CC=C(c2ccc(NC(=O)N3CC(c4cccnc4)C3)cc2)CC1 [Example 21, N-(4-{1-[(methylsulfanyl)acetyl]-1,2,3,6-tetrahydropyridin-4-yl}phenyl)-3-(pyridin-3-yl)azetidine-1-carboxamide] |
| 22 | 63.3 | 0.38 | CC(=O)N1CCC(c2ccc(NC(=O)N3CC(c4cccnc4)C3)cc2)CC1 [Example 183, N-[4-(1-acetylpiperidin-4-yl)phenyl]-3-(pyridin-3-yl)azetidine-1-carboxamide] |
| 7.23 | 34.4 | 0.295 | CCCCC(=O)N1CCC(c2ccc(NC(=O)N3CC(c4cccnc4)C3)cc2)CC1 [Example 163, N-[4-(1-pentanoylpiperidin-4-yl)phenyl]-3-(pyridin-3-yl)azetidine-1-carboxamide] |
